# Assay results reported in patent US12667572B2, “Tricyclic compounds useful in the treatment of cancer, autoimmune and inflammatory disorders” (SCHRÖDINGER, INC., priority 2021, dated 2026).
# Molecular target: T1, full-length MALT1 protein His-MALT1(1-824) (Homo sapiens, UniProt Q9UDY8)
# T1 construct: full-length MALT1 protein His-MALT1(1-824); His (N); made in house; host or cells: baculovirus-infected insect cells
# T1 sequence (Q9UDY8 1-824): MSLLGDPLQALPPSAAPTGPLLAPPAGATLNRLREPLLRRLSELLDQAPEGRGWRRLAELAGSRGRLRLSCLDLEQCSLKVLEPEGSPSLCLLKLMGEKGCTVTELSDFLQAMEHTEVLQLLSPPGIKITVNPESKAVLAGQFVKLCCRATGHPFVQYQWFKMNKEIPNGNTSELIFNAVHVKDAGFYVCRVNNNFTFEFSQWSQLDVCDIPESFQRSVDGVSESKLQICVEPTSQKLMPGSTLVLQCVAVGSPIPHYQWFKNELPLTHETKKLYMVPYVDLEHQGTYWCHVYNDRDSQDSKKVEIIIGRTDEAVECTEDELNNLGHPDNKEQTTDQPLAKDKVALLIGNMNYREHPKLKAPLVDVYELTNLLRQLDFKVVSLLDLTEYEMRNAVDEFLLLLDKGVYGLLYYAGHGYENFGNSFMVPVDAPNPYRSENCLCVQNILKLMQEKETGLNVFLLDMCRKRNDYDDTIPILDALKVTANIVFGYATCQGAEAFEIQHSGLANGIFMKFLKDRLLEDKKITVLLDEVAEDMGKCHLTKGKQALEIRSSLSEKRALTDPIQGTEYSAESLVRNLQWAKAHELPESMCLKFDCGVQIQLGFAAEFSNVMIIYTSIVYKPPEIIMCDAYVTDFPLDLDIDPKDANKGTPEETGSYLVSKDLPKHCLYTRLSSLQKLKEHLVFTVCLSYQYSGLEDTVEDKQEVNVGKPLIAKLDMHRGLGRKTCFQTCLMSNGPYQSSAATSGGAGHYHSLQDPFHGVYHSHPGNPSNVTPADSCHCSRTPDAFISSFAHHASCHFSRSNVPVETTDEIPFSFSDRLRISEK
# Test: MALT1 protease assay, Assay 2 (1 nM MALT1, Ac-LRSR-AMC substrate)
# Type: biochemical
# Conditions: 1 nM MALT1, 50 μM Ac-LRSR-AMC, 2 h pre-incubation, 8 hr incubation at RT
# How it was run: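 Full-length His-MALT1(1-824) from baculovirus-infected insect cells, pre-incubated with compound 2 h at RT (0.1% DMSO). Then 50 μM Ac-LRSR-AMC added. Buffer was Tris pH 7.5 with 600 mM sodium citrate, DTT, EDTA and BSA. Fluorescence (ex 355/em 460 nm) was read after 8 h at RT and normalized to high/low controls. IC50 from non-linear regression.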
row,IC50 [nM],SMILES
1,100 to 1000,"Cc1cn2ncc3c(c2n1)C(C)(C)C[C@H]3C(=O)Nc1cnc(-n2nccn2)c(Cl)c1 (single isomer, unassigned) [Example 188, N-(5-chloro-6-(2H-1,2,3-triazol-2-yl)pyridin-3-yl)-2,9,9-trimethyl-8,9-dihydro-7H-cyclopenta[d]imidazo[1,2-b]pyridazine-7-carboxamide]"
2,100 to 1000,"CC1(C)C[C@@H](C(=O)Nc2cnc(OC(F)F)c(Cl)c2)c2cnn3cc(Cl)nc3c21 (single isomer, unassigned) [Example 190, 2-chloro-N-(5-chloro-6-(difluoromethoxy)pyridin-3-yl)-9,9-dimethyl-8,9-dihydro-7H-cyclopenta[d]imidazo[1,2-b]pyridazine-7-carboxamide]"
3,100 to 1000,"CC1(C)C[C@@H](C(=O)Nc2cnc(-n3nccn3)c(C(F)(F)F)c2)c2cnn3cc(Cl)nc3c21 (single isomer, unassigned) [Example 192, N-(6-(2H-1,2,3-triazol-2-yl)-5-(trifluoromethyl)pyridin-3-yl)-2-chloro-9,9-dimethyl-8,9-dihydro-7H-cyclopenta[d]imidazo[1,2-b]pyridazine-7-carboxamide]"
4,100 to 1000,"CC1(C)C[C@@H](C(=O)Nc2cnc(-n3nccn3)c(Cl)c2)c2cnn3cc(Cl)nc3c21 (single isomer, unassigned) [Example 194, 2-chloro-N-(5-chloro-6-(2H-1,2,3-triazol-2-yl)pyridin-3-yl)-9,9-dimethyl-8,9-dihydro-7H-cyclopenta[d]imidazo[1,2-b]pyridazine-7-carboxamide]"
5,100 to 1000,"CC1(C)C[C@@H](C(=O)Nc2cnc(-n3nccn3)c(C#N)c2)c2cnn3cc(C(F)F)nc3c21 (single isomer, unassigned) [Example 196, N-(5-cyano-6-(2H-1,2,3-triazol-2-yl)pyridin-3-yl)-2-(difluoromethyl)-9,9-dimethyl-8,9-dihydro-7H-cyclopenta[d]imidazo[1,2-b]pyridazine-7-carboxamide]"
6,10 to 100,"CC1(C)CC(C(=O)Nc2cnc(-n3nccn3)c(C#N)c2)c2cnn3cc(C(F)F)nc3c21 (single isomer, unassigned) [Example 197, N-(5-cyano-6-(2H-1,2,3-triazol-2-yl)pyridin-3-yl)-2-(difluoromethyl)-9,9-dimethyl-8,9-dihydro-7H-cyclopenta[d]imidazo[1,2-b]pyridazine-7-carboxamide]"
7,≥ 1000,"CC1(C)C[C@@H](C(=O)Nc2cnc(OC(F)F)c(C#N)c2)c2cnn3cc(C(F)F)nc3c21 (single isomer, unassigned) [Example 198, N-(5-cyano-6-(difluoromethoxy)pyridin-3-yl)-2-(difluoromethyl)-9,9-dimethyl-8,9-dihydro-7H-cyclopenta[d]imidazo[1,2-b]pyridazine-7-carboxamide]"
8,10 to 100,"CC1(C)CC(C(=O)Nc2cnc(OC(F)F)c(C#N)c2)c2cnn3cc(C(F)F)nc3c21 (single isomer, unassigned) [Example 199, N-(5-cyano-6-(difluoromethoxy)pyridin-3-yl)-2-(difluoromethyl)-9,9-dimethyl-8,9-dihydro-7H-cyclopenta[d]imidazo[1,2-b]pyridazine-7-carboxamide]"
9,100 to 1000,"CC1(C)C[C@@H](C(=O)Nc2ccnc(C(F)(F)F)c2)c2cnn3cc(C(F)F)nc3c21 (single isomer, unassigned) [Example 200, 2-(difluoromethyl)-9,9-dimethyl-N-(2-(trifluoromethyl)pyridin-4-yl)-8,9-dihydro-7H-cyclopenta[d]imidazo[1,2-b]pyridazine-7-carboxamide]"
10,100 to 1000,"CC1(C)CC(C(=O)Nc2ccnc(C(F)(F)F)c2)c2cnn3cc(C(F)F)nc3c21 (single isomer, unassigned) [Example 201, 2-(difluoromethyl)-9,9-dimethyl-N-(2-(trifluoromethyl)pyridin-4-yl)-8,9-dihydro-7H-cyclopenta[d]imidazo[1,2-b]pyridazine-7-carboxamide]"
